{
  "source": "patent US20080207640A1",
  "about": "“Method of treating cell proliferative disorders using growth hormone secretagogues” (Sapphire Therapeutics, priority 2007, published 2008)",
  "format_in_all_cases": "in vivo, human",
  "key": {"IGF-1 [1]": {"test_system": "IGF-1", "assay": "Example 1 double blind, placebo controlled, randomized study: IGF-1 levels", "description": "(§1) A double blind, placebo controlled, randomized study was designed to investigate the ability of growth hormone secretagogues to be used for the treatment of cell proliferative disorders.\n(§2) Subjects were separated in to two groups: the placebo group and the RC-1291 group. The RC-1291 group received 50 mg of RC-1291 in two 25 mg capsules daily. The capsules were microcrystalline cellulose, magnesium stearate and RC-1291 HCl (25 mg) in a hard gelatin capsule. The placebo group received two placebo capsules daily. The placebo capsule was microcrystalline cellulose in a hard gelatin capsule.\n(§3) One hour before breakfast subjects were administered the two capsules after fasting during the night.\n(§4) At various points over the course of the three month study, levels of IGFBP-3 and IGF-1 were measured in both the placebo and RC-1291 groups."}, "IGFBP-3 [2]": {"test_system": "IGFBP-3", "assay": "Example 1 double blind, placebo controlled, randomized study: IGFBP-3 levels", "description": "as §1, §2, §3, §4"}, "IGF-1 [3]": {"test_system": "IGF-1", "assay": "Example 2 second double blind, placebo controlled, randomized study: serum IGF-1", "details": "for IGF-1: serum", "description": "(§5) A second double blind, placebo controlled, randomized study was designed to investigate the ability of growth hormone secretagogues to be used for the treatment of cell proliferative disorders.\n(§6) Subjects were separated into groups and administered a placebo or RC-1291 (Formula III). Each group was administered the appropriate number of capsules. The capsules were microcrystalline cellulose, magnesium stearate and RC-1291 HCl (25 mg) in a hard gelatin capsule. The placebo capsule was microcrystalline cellulose in a hard gelatin capsule. The RC-1291 groups received 50 mg or 100 mg of RC-1291 daily.\n(§7) Serum was obtained at office visits, clearly labeled, and stored frozen at −20° C. prior to shipment on dry ice to CRL, Lenexa, Kans. for analysis. Samples were assayed for IGF-1 and IGFBP-3."}, "IGFBP-3 [4]": {"test_system": "IGFBP-3", "assay": "Example 2 second double blind, placebo controlled, randomized study: serum IGFBP-3", "details": "for IGFBP-3: serum", "description": "as §5, §6, §7"}, "[5]": {"assay": "Example 3 cancer cachexia: lean body mass and total body mass by DEXA, subjects of Example 1", "details": "FIG. 11", "description": "(§8) The placebo controlled, randomized studies described above were used to investigate the ability of growth hormone secretagogues to treat subjects having cancer cachexia.\n(§9) Total body mass and lean body mass were measured for subjects described in Example 1 (see FIGS. 10, and 11, respectively.) Lean body mass and total body mass were measured by dual-energy x-ray absorptiometry (DEXA). Total body weight was measured for subjects described in Example 2 (see, FIG. 12)."}, "[6]": {"assay": "Example 3 cancer cachexia: total body weight, subjects of Example 2", "details": "50 and 100 mg, FIG. 12", "description": "as §8, §9"}, "[7]": {"details": "50 mg RC-1291 daily, capsules, at 4 weeks, N = 32"}, "[8]": {"details": "50 mg RC-1291 daily, capsules, at 8 weeks, N = 32"}, "[9]": {"details": "50 mg RC-1291 daily, capsules, at 12 weeks, N = 32"}, "[10]": {"details": "Example 1, 50 mg daily, vs placebo"}, "[11]": {"details": "Example 2, 50 mg or 100 mg daily, vs placebo"}},
  "note": "Where “and” joins values, the source holds several entries; their conditions need not be identical. Equal values may be shown once.",
  "data": [
    {"smiles": "CN(C)N(C)C(=O)[C@@]1(Cc2ccccc2)CCCN(C(=O)[C@@H](Cc2c[nH]c3ccccc23)NC(=O)C(C)(C)N)C1", "note": "[RC-1291]", "values": [
      {"measurement": "IGF-1 change from baseline (nM) At 4 weeks", "setting": "IGF-1 [1]; [7]", "result": 6.626, "unit": "nM"},
      {"measurement": "IGF-1 change from baseline (nM) At 8 weeks", "setting": "IGF-1 [1]; [8]", "result": 4.729, "unit": "nM"},
      {"measurement": "IGF-1 change from baseline (nM) At 12 weeks", "setting": "IGF-1 [1]; [9]", "result": 5.046, "unit": "nM"},
      {"measurement": "levels of IGF-1 (in words)", "setting": "IGF-1 [1]; [10]", "result": "raises the levels of both IGFBP-3 and IGF-1 in a statistically significant manner"},
      {"measurement": "IGFBP-3 change from baseline (nM) At 4 weeks", "setting": "IGFBP-3 [2]; [7]", "result": 26.89, "unit": "nM"},
      {"measurement": "IGFBP-3 change from baseline (nM) At 8 weeks", "setting": "IGFBP-3 [2]; [8]", "result": 17.7, "unit": "nM"},
      {"measurement": "IGFBP-3 change from baseline (nM) At 12 weeks", "setting": "IGFBP-3 [2]; [9]", "result": 20.66, "unit": "nM"},
      {"measurement": "effects on IGFBP-3 relative to effects on IGF-1, on a molar basis", "setting": "IGFBP-3 [2]; Example 1, 50 mg daily", "result": "greater than 3 fold"},
      {"measurement": "levels of IGFBP-3 (in words)", "setting": "IGFBP-3 [2]; [10]", "result": "raises the levels of both IGFBP-3 and IGF-1 in a statistically significant manner"},
      {"measurement": "IGF-1", "setting": "IGF-1 [3]; 50 mg daily, week 1", "result": "40.69 ng/mL and 5.32 nM"},
      {"measurement": "IGF-1", "setting": "IGF-1 [3]; 50 mg daily, week 2", "result": "57 ng/mL and 7.45 nM"},
      {"measurement": "IGF-1", "setting": "IGF-1 [3]; 50 mg daily, week 4", "result": "46.5 ng/mL and 6.08 nM"},
      {"measurement": "IGF-1", "setting": "IGF-1 [3]; 100 mg daily, week 1", "result": "80.25 ng/mL and 10.49 nM"},
      {"measurement": "IGF-1", "setting": "IGF-1 [3]; 100 mg daily, week 2", "result": "76.25 ng/mL and 9.97 nM"},
      {"measurement": "IGF-1", "setting": "IGF-1 [3]; 100 mg daily, week 4", "result": "73.4 ng/mL and 9.60 nM"},
      {"measurement": "levels of IGF-1 (in words)", "setting": "IGF-1 [3]; [11]", "result": "raised the levels of both IGFBP-3 and IGF-1 in a statistically significant manner"},
      {"measurement": "IGFBP-3", "setting": "IGFBP-3 [4]; 50 mg daily, week 1", "result": "580 ng/mL and 20.19 nM"},
      {"measurement": "IGFBP-3", "setting": "IGFBP-3 [4]; 50 mg daily, week 2", "result": "540 ng/mL and 18.79 nM"},
      {"measurement": "IGFBP-3", "setting": "IGFBP-3 [4]; 50 mg daily, week 4", "result": "610 ng/mL and 21.23 nM"},
      {"measurement": "IGFBP-3", "setting": "IGFBP-3 [4]; 100 mg daily, week 1", "result": "900 ng/mL and 31.32 nM"},
      {"measurement": "IGFBP-3", "setting": "IGFBP-3 [4]; 100 mg daily, week 2", "result": "670 ng/mL and 23.32 nM"},
      {"measurement": "IGFBP-3", "setting": "IGFBP-3 [4]; 100 mg daily, week 4", "result": "970 ng/mL and 33.76 nM"},
      {"measurement": "levels of IGFBP-3 (in words)", "setting": "IGFBP-3 [4]; [11]", "result": "raised the levels of both IGFBP-3 and IGF-1 in a statistically significant manner"},
      {"measurement": "change in lean body mass (in words)", "setting": "[5]", "result": "gained lean body mass and total body weight"},
      {"measurement": "change in total body weight (in words)", "setting": "[6]", "result": "gained lean body mass and total body weight"}
    ]}
  ]
}
